Data reported in ChEMBL document CHEMBL1133133, “Difluoroketones as inhibitors of matrix metalloprotease-13” (Bioorg Med Chem Lett, 2000).

These compounds were tested against Collagenase 3 (Homo sapiens, UniProt P45452) (assay: Inhibition of Matrix metalloprotease-13).

**Q.** How did the IC50 turn out when CNC(=O)C(NC(=O)C(CCc1ccccc1)CC(=O)C(F)(F)c1ccc(Cc2ccccc2)cc1)C(C)(C)C (centres undefined) was run?
**A.** 5.1 µM

**Q.** C=CCCC(=O)C(F)(F)c1ccc(Cc2ccccc2)cc1 was tested. Which IC50 did it give?
**A.** > 30 µM

**Q.** With CNC(=O)[C@@H](NC(=O)C(CCc1ccccc1)CP(=O)(O)Cc1ccc(Cc2ccccc2)cc1)C(C)(C)C (some centres undefined) as the compound, how does the IC50 read?
**A.** 0.014 µM

**Q.** How did the IC50 turn out when O=C(C(CCc1ccccc1)CC(=O)C(F)(F)c1ccc(Cc2ccccc2)cc1)N1CCCCC1 (centres undefined) was run?
**A.** 6.1 µM

**Q.** With CNC(=O)C(NC(=O)CCC(=O)C(F)(F)c1ccc(Cc2ccccc2)cc1)C(C)(C)C (centres undefined) as the compound, how does the IC50 read?
**A.** 12 µM

**Q.** For CNC(=O)C(NC(=O)C(CCc1ccccc1)CC(O)C(F)(F)c1ccc(Cc2ccccc2)cc1)C(C)(C)C (centres undefined), which IC50 is on record?
**A.** > 30 µM

**Q.** For C=CC(CCc1ccccc1)CC(O)C(F)(F)c1ccc(Cc2ccccc2)cc1 (centres undefined), which IC50 is on record?
**A.** 27 µM

**Q.** With O=C(CCCCc1ccccc1)C(F)(F)c1ccc(Cc2ccccc2)cc1 as the compound, how does the IC50 read?
**A.** > 30 µM

**Q.** Which IC50 does the source give for C=CC(CCc1ccccc1)CC(=O)C(F)(F)c1ccc(Cc2ccccc2)cc1 (centres undefined) here?
**A.** 0.29 µM
